Measurements reported in PubChem BioAssay (NCI).
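Five concentrations, 48 hours, 96-well plates. TGI marks complete inhibition of growth.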

Assays:
Experiment in all cases: NCI tumour cell line growth inhibition, 48 h
SF-268 CNS = system: SF-268 CNS
NCI-H226 lung = system: NCI-H226 lung
RPMI-8226 leukemia = system: RPMI-8226 leukemia
SK-MEL-28 melanoma = system: SK-MEL-28 melanoma
SN12C renal = system: SN12C renal
UACC-257 melanoma = system: UACC-257 melanoma
UO-31 renal = system: UO-31 renal
OVCAR-4 ovarian = system: OVCAR-4 ovarian
A549 NSCLC = system: A549 NSCLC
RXF 393 renal = system: RXF 393 renal
SF-539 CNS = system: SF-539 CNS
EKVX NSCLC = system: EKVX NSCLC
SNB-19 CNS = system: SNB-19 CNS
BT-549 breast = system: BT-549 breast
MDA-N = system: MDA-N
SR leukemia = system: SR leukemia
CAKI-1 renal = system: CAKI-1 renal
LOX IMVI melanoma = system: LOX IMVI melanoma
K-562 leukemia = system: K-562 leukemia
OVCAR-5 ovarian = system: OVCAR-5 ovarian
M14 melanoma = system: M14 melanoma
SNB-75 CNS = system: SNB-75 CNS
MDA-MB-435 = system: MDA-MB-435
NCI-H23 lung = system: NCI-H23 lung
786-0 renal = system: 786-0 renal
SK-OV-3 ovarian = system: SK-OV-3 ovarian
NCI/ADR-RES ovarian = system: NCI/ADR-RES ovarian
DU-145 prostate = system: DU-145 prostate
TK-10 renal = system: TK-10 renal
UACC-62 melanoma = system: UACC-62 melanoma
CCRF-CEM leukemia = system: CCRF-CEM leukemia
U251 CNS = system: U251 CNS
MCF7 breast = system: MCF7 breast
NCI-H522 lung = system: NCI-H522 lung
KM12 colon = system: KM12 colon
HOP-92 NSCLC = system: HOP-92 NSCLC
SK-MEL-5 melanoma = system: SK-MEL-5 melanoma
SW-620 colon = system: SW-620 colon
SK-MEL-2 melanoma = system: SK-MEL-2 melanoma
IGROV1 ovarian = system: IGROV1 ovarian
MALME-3M melanoma = system: MALME-3M melanoma
HCT-15 colon = system: HCT-15 colon
PC-3 prostate = system: PC-3 prostate
A498 renal = system: A498 renal
HCT-116 colon = system: HCT-116 colon
MDA-MB-231 breast = system: MDA-MB-231 breast
HT29 colon = system: HT29 colon
HS 578T breast = system: HS 578T breast
HOP-62 NSCLC = system: HOP-62 NSCLC
NCI-H460 lung = system: NCI-H460 lung
SF-295 CNS = system: SF-295 CNS
HCC-2998 colon = system: HCC-2998 colon
COLO 205 colon = system: COLO 205 colon
HL-60(TB) leukemia = system: HL-60(TB) leukemia
OVCAR-3 ovarian = system: OVCAR-3 ovarian
ACHN renal = system: ACHN renal
T-47D breast = system: T-47D breast
OVCAR-8 ovarian = system: OVCAR-8 ovarian
MOLT-4 leukemia = system: MOLT-4 leukemia

O=C1CCC(CCc2nc3ccccc3[nH]2)(c2ccccc2)C(=O)N1 (configuration not stated)
TGI (SF-268 CNS): > 100 µM
TGI (NCI-H226 lung): > 100 µM
TGI (RPMI-8226 leukemia): > 100 µM
TGI (SK-MEL-28 melanoma): > 100 µM
TGI (SN12C renal): > 100 µM
TGI (UACC-257 melanoma): > 100 µM
TGI (UO-31 renal): 52.1 µM
TGI (OVCAR-4 ovarian): > 100 µM
TGI (A549 NSCLC): > 100 µM
TGI (RXF 393 renal): > 100 µM
TGI (SF-539 CNS): > 100 µM
TGI (EKVX NSCLC): > 100 µM
TGI (SNB-19 CNS): > 100 µM
TGI (BT-549 breast): > 100 µM
TGI (MDA-N): > 100 µM
TGI (SR leukemia): > 100 µM
TGI (CAKI-1 renal): > 100 µM
TGI (LOX IMVI melanoma): > 100 µM
TGI (K-562 leukemia): > 100 µM
TGI (OVCAR-5 ovarian): > 100 µM
TGI (M14 melanoma): > 100 µM
TGI (SNB-75 CNS): > 100 µM
TGI (MDA-MB-435): > 100 µM
TGI (NCI-H23 lung): > 100 µM
TGI (786-0 renal): > 100 µM
TGI (SK-OV-3 ovarian): > 100 µM
TGI (NCI/ADR-RES ovarian): > 100 µM
TGI (DU-145 prostate): > 100 µM
TGI (TK-10 renal): > 100 µM
TGI (UACC-62 melanoma): > 100 µM
TGI (CCRF-CEM leukemia): > 100 µM
TGI (U251 CNS): > 100 µM
TGI (MCF7 breast): > 100 µM
TGI (NCI-H522 lung): > 100 µM
TGI (KM12 colon): > 100 µM
TGI (HOP-92 NSCLC): > 100 µM
TGI (SK-MEL-5 melanoma): > 100 µM
TGI (SW-620 colon): > 100 µM
TGI (SK-MEL-2 melanoma): > 100 µM
TGI (IGROV1 ovarian): > 100 µM
TGI (MALME-3M melanoma): > 100 µM
TGI (HCT-15 colon): > 100 µM
TGI (PC-3 prostate): > 100 µM
TGI (A498 renal): > 100 µM
TGI (HCT-116 colon): > 100 µM
TGI (MDA-MB-231 breast): > 100 µM
TGI (HT29 colon): > 100 µM
TGI (HS 578T breast): > 100 µM
TGI (HOP-62 NSCLC): > 100 µM
TGI (NCI-H460 lung): > 100 µM
TGI (SF-295 CNS): > 100 µM
TGI (HCC-2998 colon): > 100 µM
TGI (COLO 205 colon): > 100 µM
TGI (HL-60(TB) leukemia): > 100 µM
TGI (OVCAR-3 ovarian): > 100 µM
TGI (ACHN renal): > 100 µM
TGI (T-47D breast): > 100 µM
TGI (OVCAR-8 ovarian): > 100 µM

Brc1ccc2[nH]cc(-c3csc(-c4c[nH]c5ccc(Br)cc45)n3)c2c1
TGI (SF-268 CNS): 6.12 µM
TGI (NCI-H226 lung): 5.1 µM
TGI (RPMI-8226 leukemia): 3.4 µM
TGI (SK-MEL-28 melanoma): 5.31 µM
TGI (SN12C renal): 10.3 µM
TGI (UACC-257 melanoma): 9.05 µM
TGI (UO-31 renal): 7.27 µM
TGI (OVCAR-4 ovarian): 7.59 µM
TGI (A549 NSCLC): 7 µM
TGI (RXF 393 renal): 6.13 µM
TGI (SF-539 CNS): 2.9 µM
TGI (EKVX NSCLC): 3.93 µM
TGI (SNB-19 CNS): 7.61 µM
TGI (BT-549 breast): 18 µM
TGI (MDA-N): 5.95 µM
TGI (SR leukemia): 2.99 µM
TGI (CAKI-1 renal): 5.31 µM
TGI (LOX IMVI melanoma): 3.21 µM
TGI (MOLT-4 leukemia): 3.45 µM
TGI (K-562 leukemia): 3.43 µM
TGI (OVCAR-5 ovarian): 5.6 µM
TGI (M14 melanoma): 2.87 µM
TGI (SNB-75 CNS): 7.27 µM
TGI (MDA-MB-435): 5.79 µM
TGI (NCI-H23 lung): 6.34 µM
TGI (786-0 renal): 3.49 µM
TGI (SK-OV-3 ovarian): 8.09 µM
TGI (NCI/ADR-RES ovarian): 6.29 µM
TGI (DU-145 prostate): 6.89 µM
TGI (TK-10 renal): 8.19 µM
TGI (UACC-62 melanoma): 4.09 µM
TGI (CCRF-CEM leukemia): 3.93 µM
TGI (U251 CNS): 3.61 µM
TGI (MCF7 breast): 12.9 µM
TGI (NCI-H522 lung): 3.39 µM
TGI (KM12 colon): 2.95 µM
TGI (HOP-92 NSCLC): 4.64 µM
TGI (SK-MEL-5 melanoma): 3.14 µM
TGI (SW-620 colon): 4.42 µM
TGI (SK-MEL-2 melanoma): 3.81 µM
TGI (IGROV1 ovarian): 4.6 µM
TGI (MALME-3M melanoma): 3.99 µM
TGI (HCT-15 colon): 4.5 µM
TGI (PC-3 prostate): 4.44 µM
TGI (A498 renal): 6.03 µM
TGI (HCT-116 colon): 3.26 µM
TGI (MDA-MB-231 breast): 3.38 µM
TGI (HT29 colon): 3.16 µM
TGI (HS 578T breast): > 20.8 µM
TGI (HOP-62 NSCLC): 13.7 µM
TGI (NCI-H460 lung): 3.43 µM
TGI (SF-295 CNS): 6.32 µM
TGI (HCC-2998 colon): 3.26 µM
TGI (COLO 205 colon): 3.42 µM
TGI (HL-60(TB) leukemia): 12.7 µM
TGI (OVCAR-3 ovarian): 6.95 µM
TGI (ACHN renal): 4.8 µM
TGI (T-47D breast): 12.2 µM
TGI (OVCAR-8 ovarian): 7.22 µM
